Where a name gives a salt, the structure may show the parent alone.
Key:
SHR rats = test: Hypotensive properties in SHR rats; type: in vivo, rat; conditions: i.v. bolus injection of equimolar doses, conscious SHR rats
Protocol: After at least 5 days after surgical catheterization of the arterial and venous femoral, conscious old (>9 months) male SHR rats were injected iv bolus with Enalapril, compound of Ex. 3 (equimolar doses) and vehicle (saline) (0.0335 mL/100 g body weight). Blood pressure and heart rate were recorded before (control period 1 h) and after IV bolus administration for up to 4 h.

[1] = tested on: rats with renal mass reduction (RMR); test: Proteinuria and renal disease progression in rats with renal mass reduction (RMR); type: in vivo, rat; conditions: for effect on proteinuria (in words): repeated oral treatment, at 3 months
Protocol: Sprague-Dawley rats underwent right nephrectomy and ligation of two or tree branches of the main renal artery according to Olson et al. (1982). […] A group of sham operated rats was also included (Sham). Urinary protein excretion measurements were performed before the treatment and every month thereafter. Twenty-four hour urine samples were collected using metabolic cages and proteinuria was determined by the modified Coomassie Blu G dye-binding assay for the proteins with bovine serum albumin as standard.

[2] = NO release (NOx formation) in rat plasma; type: in vitro ADME; conditions: 250 μM, up to 240 min
Protocol: Rat blood was freshly collected with Na-heparin as anticoagulant from male Sprague Dawley rats weighing about 300–330 g. Blood was immediately centrifuged to obtain plasma. Plasma was incubated for up to 240 min at 37° C. in presence of either compound of Ex. 3 (250 μM) or of NO-ENA (250 μM). At fixed times points samples were withdrawn from the incubation and NOx (nitrites+nitrates), the oxidative products of NO, were determined by GPC (gas phase chemiluminescence).

[3] = tested on: isolated rabbit thoracic aorta preparations; test: Study on vascular tone: vasorelaxation of noradrenaline-precontracted aortic rings; type: cell-based; conditions: for IC50: Oryctolagus cuniculus, concentration giving 50% reversal of NA (1 μM) contraction, rabbit thoracic aorta rings with functional endothelium, read-out: IC50 (μM) ± sem
Protocol: The ability of ACE inhibitor nitroderivatives to induce vasorelaxation in comparison to native ACE inhibitors, was tested in vitro in isolated rabbit thoracic aorta preparations (Wanstall J. C. et al., Br. J. Pharmacol., 134:463–472, 2001). Male New Zealand rabbits were anaesthetized with thiopental-Na (50 mg/kg, iv), sacrificed by exsanguinations and then the thorax was opened and the aorta dissected. Single ring preparations (4 mm in length) of thoracic aorta were set up in physiological salt solution (PSS) at 37° C. in small organ chambers (5 ml). The composition of PSS was (mM): NaCl 130, NaHCO3 14.9, KH2PO4 1.2, MgSO4 1.2, HEPES 10, CaCl2, […] (95% O2/5% CO2; pH 7.4). Each ring was mounted under 2 g passive tension in 5 ml organ bath. Isometric tension was recorded with a Grass transducer (Grass FT03) attached to a BIOPAC MP150 System. Preparations were allowed to equilibrate for 1 h, then contracted submaximally with noradrenaline (NA, 1 μM) and, when the contraction was stable, acetylcholine (ACh, 10 μM) was added. A relaxant response to ACh indicated the presence of a functional endothelium. When a stable precontraction was reached, a cumulative concentration-response curve to either of the vasorelaxant agents was obtained in the presence of a functional endothelium. Time intervals between different concentrations were based on the time needed to reach a full response. Moreover, the effect of the soluble guanylyl cyclase inhibitor ODQ (1-H-(1,2,4)-oxadiazol(4,3-a)quinoxalin-1-one) on the dilator responses elicited by the compounds was examined preincubating the aortic rings with ODQ (10 μM) for 20 min. Responses to vasorelaxing agents were measured from the plateau of NA contraction. The IC50 (concentration giving 50% reversal of NA contraction) was interpolated from the plots of relaxant-response vs log molar concentration of tested compound.
IC50 is the concentration which inhibits 50% of the response.

[4] = tested on: L-NAME-induced hypertension in rats; test: L-NAME-induced hypertension in rats; type: in vivo, rat; conditions: for Systolic blood pressure (mmHg): 2 hours after administration, equimolar doses, basal 140
Protocol: Male Wistar rats weighing 225–250 g were used. The rats were divided into two groups. Under halothane anesthesia, radiotelemetry probes were inserted into descending aorta to measure systolic blood pressure (SBP). Baseline blood pressure was recovered (103 mmHg). Both groups were then provided with drinking water supplemented with L-NAME (400 mg/L) for 7 days to induce hypertension. After this treatment all the animals have a SBP of about 140 mmHg. The rats were then treated orally each day with enalapril or an equimolar dose of enalapril-nitroderivative (compound Ex. 3). Blood pressure recordings were made 2 hours after drug administration. The study was continued over three days period of drug administration.

ACE = biological target: T1, ACE (Mus musculus, UniProt P09470); test: Plasma ACE activity in CD1 mouse after i.v. dosing (FAPGG spectrophotometric method); type: in vivo; conditions: % vs basal condition
T1 construct: The plasma was stored at −20° C. until the ACE activity measurements; from tissue; host or cells: plasma of CD1 mice (heparinized blood from the vena cava)
T1 sequence (P09470 35-1237 limits assumed): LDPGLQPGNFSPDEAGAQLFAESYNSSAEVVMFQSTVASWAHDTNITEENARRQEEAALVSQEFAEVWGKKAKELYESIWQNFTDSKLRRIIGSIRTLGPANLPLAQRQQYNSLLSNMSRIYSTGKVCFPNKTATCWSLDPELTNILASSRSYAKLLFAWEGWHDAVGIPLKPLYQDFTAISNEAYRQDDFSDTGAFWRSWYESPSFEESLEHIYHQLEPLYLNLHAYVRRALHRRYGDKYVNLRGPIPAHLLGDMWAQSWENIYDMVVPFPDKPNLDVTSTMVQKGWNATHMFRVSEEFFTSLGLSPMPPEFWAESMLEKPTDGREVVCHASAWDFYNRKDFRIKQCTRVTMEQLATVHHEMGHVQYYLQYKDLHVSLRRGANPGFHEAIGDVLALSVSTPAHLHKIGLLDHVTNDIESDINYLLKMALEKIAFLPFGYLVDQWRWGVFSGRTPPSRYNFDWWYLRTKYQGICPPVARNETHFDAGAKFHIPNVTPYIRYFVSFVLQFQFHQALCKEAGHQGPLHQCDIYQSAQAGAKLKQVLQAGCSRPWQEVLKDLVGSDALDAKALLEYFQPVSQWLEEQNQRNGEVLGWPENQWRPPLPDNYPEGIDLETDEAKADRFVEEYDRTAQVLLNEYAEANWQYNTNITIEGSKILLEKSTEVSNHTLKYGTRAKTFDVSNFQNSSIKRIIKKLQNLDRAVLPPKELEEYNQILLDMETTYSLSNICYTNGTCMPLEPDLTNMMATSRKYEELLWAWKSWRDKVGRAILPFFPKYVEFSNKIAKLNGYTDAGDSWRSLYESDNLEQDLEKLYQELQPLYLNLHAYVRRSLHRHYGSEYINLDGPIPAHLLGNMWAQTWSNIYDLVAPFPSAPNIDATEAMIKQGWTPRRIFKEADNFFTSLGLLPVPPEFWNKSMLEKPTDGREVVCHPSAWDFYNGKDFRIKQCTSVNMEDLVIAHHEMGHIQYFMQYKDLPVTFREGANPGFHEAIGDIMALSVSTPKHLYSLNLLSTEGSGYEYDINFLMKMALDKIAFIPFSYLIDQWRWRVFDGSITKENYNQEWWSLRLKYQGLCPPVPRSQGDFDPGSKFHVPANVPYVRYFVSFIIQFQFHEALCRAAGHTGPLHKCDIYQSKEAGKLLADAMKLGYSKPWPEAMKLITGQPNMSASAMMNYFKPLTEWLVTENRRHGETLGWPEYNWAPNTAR
Protocol: CD1 mouse were treated i.v. with a single dose of 3 mg/Kg of enalapril and with a equimolar doses of enalapril nitroderivatives (compound of Ex. 3; 3.6 mg/Kg) and NO-ENA (3.92 mg/Kg). […] Heparinized blood samples were centrifuged at 1000 g for 20 min at 4° C. The plasma was stored at −20° C. until the ACE activity measurements. The ACE activity was determined by a spectrophotometric method (Sigma) based on the enzymatic reaction catalysed by ACE, where the FAPGG was hydrolysed to FAP. FAPGG hydrolysis produced a decrease in the absorbance at 340 nm, a marker of ACE activity in the sample.
The results, reported in Table 3, are expressed as % of ACE activity vs basal condition.

[5] = 3rd month of daily oral treatment, Compound of Ex. 3 50 mg/kg, enalapril 7.5 mg/kg
[6] = 21 days after renal ablation, before the treatment
[7] = Basal (before renal ablation and treatment)
[8] = 15 min after single i.v. dose equimolar to 3 mg/Kg enalapril
[9] = 30 min after single i.v. dose equimolar to 3 mg/Kg enalapril
[10] = 1 h after single i.v. dose equimolar to 3 mg/Kg enalapril
[11] = 3 hs after single i.v. dose equimolar to 3 mg/Kg enalapril
[12] = 6 hs after single i.v. dose equimolar to 3 mg/Kg enalapril
[13] = 24 hs after single i.v. dose equimolar to 3 mg/Kg enalapril

| Structure (SMILES) | decrease in blood pressure compared with enalapril (in words) (SHR rats) | Proteinuria (mg/day) ± sem [1, 5] [mg/day] | Proteinuria (mg/day) ± sem [1, 6] [mg/day] | Proteinuria (mg/day) ± sem [1, 7] [mg/day] | effect on proteinuria (in words) [1] | NO-release rate compared with NO-ENA (in words) [2] | IC50 [3] [µM] | Systolic blood pressure (mmHg) ([4]; 1st day of oral treatment) | Systolic blood pressure (mmHg) ([4]; 2nd day of oral treatment) | Systolic blood pressure (mmHg) ([4]; 3rd day of oral treatment) | effects on L-NAME-induced hypertension compared with enalapril (in words) ([4]; oral, equimolar dose) | ACE Activity (% of activity) (ACE; [8]) [%] | ACE Activity (% of activity) (ACE; [9]) [%] | ACE Activity (% of activity) (ACE; [10]) [%] | ACE Activity (% of activity) (ACE; [11]) [%] | ACE Activity (% of activity) (ACE; [12]) [%] | ACE Activity (% of activity) (ACE; [13]) [%] | relaxation of NA-contracted aortic rings (in words) ([3]; cumulative concentration-response curve) |
| --- | --- | --- | --- | --- | --- | --- | --- | --- | --- | --- | --- | --- | --- | --- | --- | --- | --- | --- |
| CCOC(=O)[C@H](CCc1ccccc1)N[C@@H](C)C(=O)N1CCC[C@H]1C(=O)OCCCO[N+](=O)[O-].O=C(O)/C=C\C(=O)O [Compound of Ex. 3, N-[(1S)-1-(Ethoxycarbonyl)-3-phenylpropyl]-L-alanyl-L-proline 3-nitrooxypropyl ester hydrogen maleate] | higher decrease in blood pressure than enalapril | 163.9 | 76.5 ± 20.3 | 17.5 ± 1.3 | reduced proteinuria at 3 months | much slower than the NO-release of NO-ENA | 30.9 ± 8.4 | 120 | 117 | 115 | superior to those of enalapril | 2.9 | 3.7 | 4.1 | 11.1 | 49.2 | 83.55 |  |
| CCOC(=O)[C@H](CCc1ccccc1)N[C@@H](C)C(=O)N1CCC[C@H]1C(=O)Oc1cccc(CO[N+](=O)[O-])c1.O=C(O)/C=C\C(=O)O [NO-ENA, enalapril 3-(nitrooxymethyl)phenyl ester maleate] |  |  |  |  |  |  |  |  |  |  |  | 5.4 | 4.8 | 9.3 | 23.6 | 55.2 | 90.1 |  |
| C[C@H](N[C@@H](CCc1ccccc1)C(=O)OCCCO[N+](=O)[O-])C(=O)N1CCC[C@H]1C(=O)O [Compound of Ex. 1, N-[(1S)-1-(3-nitrooxypropoxycarbonyl)-3-phenylpropyl]-L-alanyl-L-proline hydrochloride] |  |  |  |  |  |  | 21.9 ± 6.9 |  |  |  |  |  |  |  |  |  |  |  |
| CCOC(=O)[C@H](CCc1ccccc1)N[C@@H](C)C(=O)N1CCC[C@H]1C(=O)O [Enalapril] |  | 290.5 ± 43.2 | 72.4 ± 18.3 | 15.7 ± 1.2 | only a marginal effect |  | > 100 | 128 | 125 | 120 |  | 4.8 | 5.1 | 7.3 | 19.6 | 50.8 | 100 | did not produce relaxation at any of the concentration tested |

Reference: patent US7217733B2, “ACE inhibitor derivatives” (priority 2003, dated 2007)
